Data as given in publication PMC9775177, “NLRP3-Inflammasome Inhibition with IZD334 Does Not Reduce Cardiac Damage in a Pig Model of Myocardial Infarction” (Biomedicines, 2022).
“And” between values parts separate entries of the source, which are not always exact repeats. Identical values can stand only once. Like-named read-outs stand apart in the source and are kept apart here.

What was measured:
[1] = tested on: NLRP3-inflammasome; assay: In vitro stimulation of porcine whole blood with LPS and ATP, IL-1β release; type: cell-based
Procedure: To confirm the ability of IZD334 to effectively attenuate porcine NLRP3-inflammasome signaling, we used a previously standardized study protocol. In short, porcine peripheral blood mononuclear cells (PBMCs) were isolated from healthy porcine animals. Whole blood samples and isolated PBMCs were stimulated with lipopolysaccharide (LPS) (1 µg/mL, L4516, Sigma-Aldrich, St. Louis, MO, USA) and increasing concentrations of IZD334. After three h of incubation, 5 mM adenosine triphosphate (ATP) (A1852, Sigma-Aldrich, St. Louis, MO, USA) was added for 1 h to induce inflammasome activation. IL-1β release was measured in the supernatant with a Luminex Immunoasssay specific for porcine IL-1β (EPX01A-66048-901, ProcartaTM Simplex, eBioscience, ThermoFisher, San Diego, CA, USA).
In short, porcine peripheral blood mononuclear cells (PBMCs) were isolated from healthy porcine animals using Ficoll density-gradient centrifugation. Whole blood samples and isolated PBMCs were stimulated with lipopolysaccharide (LPS) (1 µg/mL, L4516, Sigma-Aldrich, St. Louis, MO, USA) and increasing concentrations of IZD334 (top concentration of 10 µM with an 8-point half-log dilution). After three h of incubation, 5 mM adenosine triphosphate (ATP) (A1852, Sigma-Aldrich, St. Louis, MO, USA) was added for 1 h to induce inflammasome activation. IL-1β release was measured in the supernatant with a Luminex Immunoasssay specific for porcine IL-1β (ProcartaTM Simplex, eBioscience, San Diego, CA, USA).

[2] = tested on: pig model of myocardial infarction; assay: In vivo MI study: serological and histological read-outs; design: species or system pigs; conditions: 1, 3, 10 mg/kg groups
Procedure: Circulating leukocyte numbers at different time points after reperfusion were measured by whole-blood analysis using an automated hematological cell-counter (Cell-Dyn Sapphire, Abbott, Santa Clara, CA, USA). Plasma samples were obtained by whole-blood centrifugation at 1850× g and were immediately stored at −80 °C. C-reactive protein (CRP) levels were measured using solid phase DuoSet sandwich ELISA (DY1707, R&D Systems, Minneapolis, MN, USA) according to the manufacturer’s protocol. Troponin I levels were measured using a clinical chemistry analyzer (AU5811, Beckman Coulter, Woerden, The Netherlands). Histological analysis of collagen, myocardial immune cells, neutrophils, and monocyte infiltration is described in the Appendix A.
Infarcted and border zoned myocardial tissues were collected, and protein was isolated using a Roche protein isolation kit (cOmplete™ Lysis-M EDTA-free, Roche, Basel, Switzerland). IL-1β protein was measured with a Luminex Immunoassay specific for pig IL-1β (ProcartaPlex Pig IL-1β simplex Cat# EXP01A-66048-901 Invitrogen, Thermo Fisher Scientific, MA, USA) and corrected for total protein. For further histological analysis, infarcted and BZ myocardial tissue was processed, paraffin-imbedded, and cut into 5 µm sections after being conserved in 4% paraformaldehyde for 7 days. Cell nuclei were stained using hematoxylin, and area of cell infiltration was counted for each pig in 5 regions close to fibrotic areas in the infarct zone using Olympus CellSens software. Collagen was visualized using Picosirus Red staining (Abcam). The percentage of collagen was quantified using ImageJ software (1.47v).
Neutrophil infiltration in myocardial tissue was quantified in paraffin-embedded histological biopsies that were conserved in 4% formaldehyde for at least 7 days with a monoclonal mouse antibody against porcine neutrophils (Clone PM1, BMA Biomedicals, Augst, Switzerland) for 60 min and secondary incubation with Brightvision Poly-AP-anti-mouse (ImmunoLogic, Duiven, The Netherlands) for 30 min followed by development with liquid permanent red.
Monocyte infiltration was quantified in histological slides of myocardial tissue (paraffin and fresh frozen slides, respectively) using a monoclonal mouse anti-pig antibody against CD107a (Clone JM2E5, Bio-Rad, Kidlington, UK) or a mouse monoclonal antibody against CD14 (Ab23919, Abcam, Cambridge, UK); 60 min of incubation was followed by Brightvision Poly-AP-anti-mouse (ImmunoLogic, Duiven, The Netherlands) for 30 min and development with liquid permanent red.

[3] = tested on: pig model of myocardial infarction; conditions: for 0 Min HR (bpm) / 30 Min MAP (mmHg) / 60 Min HR (bpm) / 90 Min MAP (mmHg) / 120 Min HR (bpm) / 150 Min MAP (mmHg): time after induction of MI
Procedure: All animal experiments and analyses were performed in a blinded, randomized fashion. […] Fifteen minutes before reperfusion, pigs were randomly assigned to IV treatment with either placebo (40 mL PBS) or a 10 mg/kg IZD334 loading dose (dissolved in 40 mL PBS) infusion for 30 min. After the first dose of IZD334, pigs were randomly assigned to three oral treatment regimens (1 mg/kg, 3 mg/kg, and 10 mg/kg). Dosing was based on in vivo pharmacokinetic findings in healthy pigs. The control (PBS) group received an oral placebo. Oral treatment was continued for six days. All pigs underwent transthoracic and three-dimensional transesophageal echocardiography before induction of ischemia and after 7 days. Furthermore, on day 7, cardiac magnetic resonance (CMR) imaging was performed. Subsequently, the LAD was occluded at the exact same site as during infarct induction. After verification of complete vessel occlusion, Evans Blue (E2129, Sigma-Aldrich, St. Louis, MO, USA) solution was infused in the left and right coronary arteries in order to assess the area at risk (AAR). Animals were sacrificed by exsanguination under anesthesia. […] Each slice was photographed at the basal and apical side with a ruler and analyzed with ImageJ software (NIH, Bethesda, MD, USA).

[4] = tested on: pig model of myocardial infarction; assay: In vivo MI study: infarct size by Evans Blue TTC double staining; conditions: 10 mg/kg IV loading dose, 7 days after MI
Procedure: All animal experiments and analyses were performed in a blinded, randomized fashion. Thirty female pigs were subjected to closed-chest LAD coronary artery balloon occlusion for 75 min followed by 7 days of reperfusion. […] The control (PBS) group received an oral placebo. Oral treatment was continued for six days. All pigs underwent transthoracic and three-dimensional transesophageal echocardiography before induction of ischemia and after 7 days. Furthermore, on day 7, cardiac magnetic resonance (CMR) imaging was performed. Subsequently, the LAD was occluded at the exact same site as during infarct induction. After verification of complete vessel occlusion, Evans Blue (E2129, Sigma-Aldrich, St. Louis, MO, USA) solution was infused in the left and right coronary arteries in order to assess the area at risk (AAR). Animals were sacrificed by exsanguination under anesthesia. The heart was excised, cut into 5 slices, and incubated in 1% 2,3,5-triphenyltetrazolium chloride (TTC) (1.08380, Sigma-Aldrich, St. Louis, MO, USA) in 37 degrees 0.9% NaCl for 15 min to discriminate between infarct tissue and viable myocardium. Each slice was photographed at the basal and apical side with a ruler and analyzed with ImageJ software (NIH, Bethesda, MD, USA).

[5] = infarct tissue, 7 days after MI
[6] = myocardial tissue, 7 days after MI
[7] = then 1 mg/kg oral once daily, n = 6
[8] = then 3 mg/kg oral once daily, n = 6
[9] = then 10 mg/kg oral once daily, n = 7

CCN1CCC(S(=O)(=O)[N-]C(=O)Nc2c3c(cc4c2CCC4)CCC3)CC1.[K+] [IZD334]
performance in whole blood assay compared with MCC950 ([1]; porcine whole blood assay): performs as well as MCC950 | IC50 ([1]; porcine whole blood, LPS 1 µg/mL 3 h, then 5 mM ATP 1 h, read-out: half maximal inhibitory concentration (IC50), IL-1β release): 350 nM | LogIC50, whole blood stimulation ([1]; porcine whole blood, LPS + ATP, basis of log not printed (fits nM)): 2.545 | CRP levels versus placebo ([2]; any time point during 7-day follow-up): No significant difference | Systemic troponin I levels versus placebo ([2]; 7-day follow-up): trends were similar between the treatment groups | Total leukocyte numbers versus placebo ([2]; circulating, 7-day follow-up): did not differ between groups | neutrophil counts versus placebo ([2]; circulating, 7-day follow-up): did not differ between groups | Intra-myocardial IL-1β levels versus placebo ([2]; infarct and border zone, 7 days after MI): without any difference among treatment arms | collagen formation (histology) versus placebo [2, 5]: no differences between the groups | total myocardial immune cell infiltration (histology) versus placebo [2, 5]: no differences between the groups | monocyte infiltration (histology) versus placebo [2, 6]: no differences between the groups | neutrophil infiltration (histology) versus placebo [2, 6]: no differences between the groups | 0 Min HR (bpm) ([3]; 1 mg/kg group, n = 6): 70 ± 12 bpm | 30 Min MAP (mmHg) ([3]; 1 mg/kg group, n = 6): 85 ± 7 mmHg | 60 Min HR (bpm) ([3]; 1 mg/kg group, n = 6): 68 ± 9 bpm | 90 Min MAP (mmHg) ([3]; 1 mg/kg group, n = 6): 71 ± 12 mmHg | 120 Min HR (bpm) ([3]; 1 mg/kg group, n = 6): 67 ± 8 bpm | 150 Min MAP (mmHg) ([3]; 1 mg/kg group, n = 6): 79 ± 11 mmHg | 0 Min HR (bpm) ([3]; 3 mg/kg group, n = 7): 74 ± 4 bpm | 30 Min MAP (mmHg) ([3]; 3 mg/kg group, n = 7): 74 ± 13 mmHg | 60 Min HR (bpm) ([3]; 3 mg/kg group, n = 7): 72 ± 11 bpm | 90 Min MAP (mmHg) ([3]; 3 mg/kg group, n = 7): 58 ± 20 mmHg | 120 Min HR (bpm) ([3]; 3 mg/kg group, n = 7): 61 ± 7 bpm | 150 Min MAP (mmHg) ([3]; 3 mg/kg group, n = 7): 70 ± 23 mmHg | 0 Min HR (bpm) ([3]; 10 mg/kg group, n = 7): 73 ± 11 bpm | 30 Min MAP (mmHg) ([3]; 10 mg/kg group, n = 7): 72 ± 12 mmHg | 60 Min HR (bpm) ([3]; 10 mg/kg group, n = 7): 70 ± 11 bpm | 90 Min MAP (mmHg) ([3]; 10 mg/kg group, n = 7): 56 ± 19 mmHg | 120 Min HR (bpm) ([3]; 10 mg/kg group, n = 7): 62 ± 7 bpm | 150 Min MAP (mmHg) ([3]; 10 mg/kg group, n = 7): 62 ± 15 mmHg | Heart rate and mean arterial blood pressure versus placebo ([3]; first 2.5 h after induction of MI and subsequent compound administration, all dose groups): similar | pigs that died one day after infarct induction ([3]; low-dose (1 mg/kg) group, presumably due to late VF, also one animal in the placebo group): one animal | AAR/LV ± SD [4, 7]: 23.5 ± 3.2% | IS/AAR ± SD [4, 7]: 75.5 ± 7.3% and 75.5% | IS/LV ± SD [4, 7]: 17.7 ± 6.3% | AAR/LV ± SD [4, 8]: 26.0 ± 1.9% | IS/AAR ± SD [4, 8]: 80.3 ± 3.9% | IS/LV ± SD ([4]; then 3 mg/kg oral once daily, n = 7): 20.5 ± 2.2% | AAR/LV ± SD [4, 9]: 26.4 ± 6.6% | IS/AAR ± SD [4, 9]: 78.2 ± 8.0% and 78.2% | IS/LV ± SD [4, 9]: 19.3 ± 2.9%
